This note sets out measurements from US7196119B2, “Development of new selective estrogen receptor modulators” (The Regents of the University of California, priority 2003, dated 2007).

“Also recorded” adds a separate entry of the source. Where two headings read alike, the source gives them in different places.

Experiment [1] concerns the target T1, full length (ER)α (Homo sapiens, UniProt P03372).
T1 construct: purchased Pan Vera Corp, Madison, Wis., USA
T1 sequence (P03372 1-595): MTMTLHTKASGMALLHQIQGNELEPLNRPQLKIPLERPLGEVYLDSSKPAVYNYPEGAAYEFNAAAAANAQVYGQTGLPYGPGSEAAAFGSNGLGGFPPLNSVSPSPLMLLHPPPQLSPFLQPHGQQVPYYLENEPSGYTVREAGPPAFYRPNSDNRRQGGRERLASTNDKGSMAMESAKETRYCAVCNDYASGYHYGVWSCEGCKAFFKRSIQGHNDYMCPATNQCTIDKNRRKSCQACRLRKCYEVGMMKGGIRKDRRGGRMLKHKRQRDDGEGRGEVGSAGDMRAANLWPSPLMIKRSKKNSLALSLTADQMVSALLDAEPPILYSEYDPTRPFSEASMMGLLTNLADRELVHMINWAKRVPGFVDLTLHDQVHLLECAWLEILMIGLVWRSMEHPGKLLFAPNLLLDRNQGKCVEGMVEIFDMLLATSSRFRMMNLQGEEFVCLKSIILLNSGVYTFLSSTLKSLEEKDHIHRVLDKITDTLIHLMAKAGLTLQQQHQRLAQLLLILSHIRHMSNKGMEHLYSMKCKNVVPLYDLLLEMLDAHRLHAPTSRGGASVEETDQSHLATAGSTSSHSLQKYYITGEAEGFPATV
The experiment in a line: Estrogen receptor binding assay (spin column, [3H]estradiol competition).

Experiment [2] addresses T2, full length (ER)β (Homo sapiens, UniProt Q92731).
T2 construct: to full length (ER)α or (ER)β*; purchased Pan Vera Corp, Madison, Wis., USA
The experiment is described as above.

The test system of experiment [3] is GABAB receptor-mediated outward current in hypothalamic arcuate neurons (membrane associated estrogen receptor). The experiment in a line: Whole-cell patch voltage clamp: attenuation of the baclofen-induced GABAB response (GIRK outward current) in hypothalamic slices. Format: cell-based, guinea pig.
The subject of experiment [4] is uteri. The experiment in a line: Uterotropic action (uterine size/weight) in ovariectomized mice. Format: in vivo, C57BL/6 mice. The procedure: Wild-type C57BL/6 mice in these studies were obtained from Jackson laboratories. All animals were maintained under controlled temperature (25° C.) and photoperiod conditions (14-h light, 10-h dark; lights on between 0700 and 2100) with food and water ad libitum. Adult mice were ovariectomized under isoflurane anesthesia, and allowed to recover for 1 week. […] The uteri were collected, weighed and fixed in 4% paraformaldehyde for later histological analysis (data not shown).

T2 sequence (Q92731 whole entry): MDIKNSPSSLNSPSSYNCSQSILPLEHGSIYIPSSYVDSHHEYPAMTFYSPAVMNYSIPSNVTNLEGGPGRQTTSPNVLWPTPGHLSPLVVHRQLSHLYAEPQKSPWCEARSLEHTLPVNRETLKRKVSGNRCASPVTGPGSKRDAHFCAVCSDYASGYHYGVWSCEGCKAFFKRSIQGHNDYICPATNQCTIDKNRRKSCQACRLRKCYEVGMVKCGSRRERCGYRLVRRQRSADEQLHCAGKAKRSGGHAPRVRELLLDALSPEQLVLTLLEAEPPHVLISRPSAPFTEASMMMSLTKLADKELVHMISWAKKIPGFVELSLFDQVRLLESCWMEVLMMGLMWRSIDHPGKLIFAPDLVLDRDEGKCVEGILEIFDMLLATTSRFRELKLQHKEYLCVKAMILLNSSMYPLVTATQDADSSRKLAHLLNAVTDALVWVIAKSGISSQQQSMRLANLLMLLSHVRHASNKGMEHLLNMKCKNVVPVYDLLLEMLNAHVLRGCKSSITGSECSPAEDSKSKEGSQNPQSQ

With 4-hydroxytamoxifen, the “Relative binding affinity (ER)α” value in experiment [1] was found to be 36%. In addition, the “Relative binding affinity (ER)β” value in experiment [2] was determined as 43%. In experiment [3], the “block of the baclofen response” value is given as 25%.
Take `C[C@]12CC[C@@H]3c4ccc(O)cc4CC[C@H]3[C@@H]1CC[C@H]2O` [17α-estradiol]: in experiment [3], the “effect on the baclofen (GABAB) response” value is on record as “no effect”.
On to `C[C@]12CC[C@@H]3c4ccc(O)cc4CC[C@H]3[C@@H]1CC[C@@H]2O` [17β-estradiol], for which, in experiment [3], the “R2/R1 (second over first baclofen response)” value was determined as 58.6±3.4%, the “decrease in the response to a second application of baclofen” value came out at 41% and the “effect on the baclofen (GABAB) response” value was “no effect”.
Turning to `CN(C)CCCn1cc(C2=C(c3c[nH]c4ccccc34)C(=O)NC2=O)c2ccccc21.Cl` [BIS, bisindolylmaleimide I hydrochloride], the “effect on the 17β-estradiol-induced suppression of the GABAB response” value (shortened to “effect … of the GABAB response”) in experiment [3] was “nearly eliminated the effects of 17β-estradiol”.
Regarding `CC/C(=C(\C(=O)Nc1ccc(OCCN(C)C)cc1)c1ccc(O)cc1)c1ccccc1` [Compound 8, (E,Z)-2-(4-hydroxyphenyl)-3-phenylpent-2-enoic acid [4-(2-dimethylaminoethoxy)-phenyl]amide], the “binding affinity for nuclear (ER)α compared to that of 17β-estradiol” value in experiment [1] (fold reduction versus 17β-estradiol) is reported as “approximately one million-fold reduced binding affinity”. Further, the “Relative binding affinity (ER)α” value in experiment [1] (percentage of the potency of 17β-estradiol (IC50 estradiol / IC50 ligand x 100)) was 4.3 × 10^−6%. Also, the “effect on the baclofen (GABAB) response” value is on record as “as efficacious as 100 nM 17β-estradiol; also recorded: stronger activator of this rapid 17β-estradiol response than 17β-estradiol” in experiment [3] (10 nM, applied alone) and “inhibited the baclofen response” in experiment [3] (10 nM, applied alone, listed as compound 8). Besides, the uterotropic actions entry in experiment [4] (2 or 5 μg daily for 2 days) is on record as “no uterotropic actions”.
On to `Cl.Cl.O=S(=O)(NCCNC/C=C/c1ccc(Br)cc1)c1cccc2cnccc12` [Compound H89], for which the “effect … of the GABAB response” value in experiment [3] (10 μM, with 17β-estradiol) was “blocked”.
On to `N#CC(=C(/N)Sc1ccccc1N)/C(C#N)=C(/N)Sc1ccccc1N` [Compound U0126], for which the “effect … of the GABAB response” value in experiment [3] (5 μM, with 17β-estradiol) is “did not affect 17β-estradiol inhibition of baclofen responses”.
`COc1ccc2c(c1)CC[C@@H]1[C@@H]2CC[C@]2(C)[C@@H](NCCCCCCN3C(=O)C=CC3=O)CC[C@@H]12` [Compound U73122]: the “effect … of the GABAB response” value in experiment [3] (10 μM, with 17β-estradiol) is listed as “blocked”.
Consider `COc1ccc2c(c1)CC[C@@H]1[C@@H]2CC[C@]2(C)[C@@H](NCCCCCCN3C(=O)CCC3=O)CC[C@@H]12` [Compound U73343], for which the “effect … of the GABAB response” value in experiment [3] (10 μM, with 17β-estradiol) is on record as “no effect”.
On to `CC/C(=C(\c1ccccc1)c1ccc(/C=C/C(=O)O)cc1)c1ccccc1` [GW-5638], for which, in experiment [3] (1 μM, applied alone), the “effect on the baclofen (GABAB) response” value is “significantly more efficacious than 17β-estradiol”.
For `Cn1c2ccccc2c2c3c(c4c5ccccc5n(CCC#N)c4c21)CNC3=O` [Gö6976], in experiment [3] (test concentration not given, with 17β-estradiol), the “effect … of the GABAB response” value was “without effect”.
Consider `C[C@]12CC[C@@H]3c4ccc(O)cc4C[C@@H](CCCCCCCCC[S+]([O-])CCCC(F)(F)C(F)(F)F)[C@H]3[C@@H]1CC[C@@H]2O` (stereo partly shown) [ICI 182, 780], for which, in experiment [3] (1 μM, applied alone), the “effect on the baclofen (GABAB) response” value is “no effect”. For the same compound, the “effect … of the GABAB response” value in experiment [3] (1 μM, with 17β-estradiol) was “blocked”.
In the case of `COc1cccc(-c2cc(=O)c3ccccc3o2)c1N` [PD98059], in experiment [3] (10 μM, with 17β-estradiol), the “effect … of the GABAB response” value is listed as “did not affect 17β-estradiol inhibition of baclofen responses”. For the same compound, in experiment [3] (PD98059 (10 μM, in the pipette) + 17β-estradiol, baclofen 5 μM), the “R2/R1 (second over first baclofen response)” value is on record as 66.1±11.8%.
Turning to `O=C(c1ccc(OCCN2CCCCC2)cc1)c1c(-c2ccc(O)cc2)sc2cc(O)ccc12` [Raloxifene, raloxifene], the “effect on the baclofen (GABAB) response” value in experiment [3] is on record as “completely mimicked the actions of 17β-estradiol”.
As for `Nc1ncnc2c1ncn2[C@@H]1O[C@@H]2COP(O)(=S)O[C@H]2[C@H]1O` (stereo partly shown) [Rp-cAMP], the “effect … of the GABAB response” value in experiment [3] (200 μM, dialysis, with 17β-estradiol) is listed as “abolished”.
With `CC/C(=C(\c1ccccc1)c1ccc(OCCN(C)C)cc1)c1ccccc1` [Tamoxifen, tamoxifen], in experiment [3], the “R2/R1 (second over first baclofen response)” value came to 60.4±6.6%, the “effect … of the GABAB response” value was “did not attenuate the effects of 17β-estradiol” and the “effect on the baclofen (GABAB) response” value was “inactive”.
For `C[C@]12CC[C@@H]3c4ccc(OC(=O)c5ccccc5)cc4CC[C@H]3[C@@H]1CC[C@@H]2O` [estradiol benzoate], the uterine size entry in experiment [4] (1 μg daily for 2 days, compared with oil vehicle) is listed as “noticeable increase in uterine size”.
For the compound `CC(=O)c1c(O)c(C)c(O)c(Cc2c(O)c3c(c(C(=O)/C=C/c4ccccc4)c2O)OC(C)(C)C=C3)c1O` [rottlerin], in experiment [3], the “effect … of the GABAB response” value was “completely blocked”.
In the case of Ac-LGLNLKEYNLV-OH [Gq peptide], the “effect … of the GABAB response” value in experiment [3] was “significantly blocked”.
